Measured values: ChEMBL document CHEMBL2113921, “Open Source Malaria Deposition 1. http://malaria.ourexperiment.org” (2013)
≈ marks a conversion by molar mass, not a printed value. Calls of active or inactive are those of the source. No cut-off for these calls is given here.

Columns and labels:
Plasmodium falciparum [1] = test: OSM: Inhibition of Plasmodium falciparum 3D7 growth. IC50 values determined from 21 point dose response curves. Avery Group Griffith.; format: functional, organism-based
Plasmodium falciparum [2] = test: OSM: Inhibition of Plasmodium falciparum 3D7 growth using a SYBR green I fluorescence based assay. GSK Tres Cantos.; format: functional, organism-based
[3] = OSM: HEK293 cytotoxicity assay. Duplicate point single experiment at 120 uM. Avery Group, Griffith.; format: toxicity, cell-based; conditions: human, HEK293 cells; read-out: Inhibition
[4] = OSM: Kinetic solubility pH 2 0.01 M HCl ug/mL.; format: ADME
[5] = OSM: Kinetic solubility pH 6.5 isotonic phosphate buffer.; format: ADME
[6] = OSM: Microsomal stability: 0.5 uM substrate, 0.4 mg/mL protein, NADPH cofactor). Analysed by LC/MS. In vitro CLint (uL/min/mg protein).; format: ADME, Microsome; conditions: human, microsomes
[7] = OSM: Microsomal stability: 0.5 uM substrate, 0.4 mg/mL protein, NADPH cofactor. Analysed by LC/MS. Degradation half life (min).; format: ADME, Microsome; conditions: human, microsomes
[8] = OSM: Microsomal stability: 0.5 uM substrate, 0.4 mg/mL protein, NADPH cofactor. Analysed by LC/MS. Degradation rate classification.; format: ADME, Microsome; conditions: human, microsomes
[9] = molecular target: Voltage-gated inwardly rectifying potassium channel KCNH2 (Homo sapiens, UniProt Q12809); test: OSM: hERG, IC50 uM (Essen Bioscience): IonWorks patch clamp electrophysiology. 8 point concentration-response curves were generated using 3-fold serial dilutions from the maximum final assay concentration of 33 uM.; format: functional
Plasmodium berghei = test: OSM: Mice are infected intravenously with parasitized red blood cells on day 0 (2 x 10^7 parasitized erythrocytes per ml). Experimental mice are generally treated at 4, 24, 48, and 72 hours post-infection with an oral dose of the compound (50 mg/kg, 4-day test by Peters) and are compared to an infected control group for reduction in parasitaemia on day 4 (96 hours post-infection) as a percentage.; format: functional, organism-based; conditions: Mus musculus; Swiss; Plasma
Plasmodium falciparum [10] = test: OSM: CSIR assay 3D7: Compounds were tested for inhibition of Plasmodium falciparum growth using a SYBR green I fluorescence based assay.; format: functional, organism-based
Plasmodium falciparum K1 [11] = test: OSM: CSIR assay K1: Compounds were tested for inhibition of Plasmodium falciparum growth using a SYBR green I fluorescence based assay.; format: functional, organism-based
Plasmodium falciparum K1 [12] = test: OSM: Inhibition of Plasmodium falciparum K1 growth. IC50 values determined from 21 point dose response curves. Avery Group Griffith.; format: functional, organism-based
Plasmodium falciparum [13] = test: OSM: Inhibition of Plasmodium falciparum 3D7 growth using a SYBR green I fluorescence based assay. Dose response curves were generated comprising of 8 points using a 2-fold serial dilution for the maximum final concentration of 1000 nM. Ralph Group, Bio21.; format: functional, organism-based
Plasmodium falciparum [14] = test: OSM: Late stage gametocytes. IC50 values determined from 21 point dose response curves. Avery Group Griffith.; format: functional, organism-based; conditions: Pfs16-GFP transgenic NF54
[15] = OSM: HEK293 cytotoxicity assay. IC50 values determined from 21 point dose response curves. Avery Group Griffith.; format: toxicity, cell-based; conditions: human, HEK293 cells
Plasmodium falciparum K1 [16] = test: OSM: Percent inhibition of Plasmodium falciparum K1 growth at 120 uM. Avery Group Griffith.; format: functional
Plasmodium falciparum [17] = test: OSM: Percent inhibition of Plasmodium falciparum 3D7 growth at 120 uM. Avery Group Griffith.; format: functional
Plasmodium falciparum [18] = test: OSM: Percent inhibition of Plasmodium falciparum 3D7 growth at 40 uM. Avery Group Griffith.; format: functional
Plasmodium falciparum [19] = test: OSM: Percent inhibition of Plasmodium falciparum 3D7 growth at 80 uM. Avery Group Griffith.; format: functional
Plasmodium falciparum [20] = test: OSM: Percent inhibition of Plasmodium falciparum 3D7 growth at 100 uM. Avery Group Griffith.; format: functional

Voltage-gated inwardly rectifying potassium channel KCNH2, sequence (Q12809 whole entry): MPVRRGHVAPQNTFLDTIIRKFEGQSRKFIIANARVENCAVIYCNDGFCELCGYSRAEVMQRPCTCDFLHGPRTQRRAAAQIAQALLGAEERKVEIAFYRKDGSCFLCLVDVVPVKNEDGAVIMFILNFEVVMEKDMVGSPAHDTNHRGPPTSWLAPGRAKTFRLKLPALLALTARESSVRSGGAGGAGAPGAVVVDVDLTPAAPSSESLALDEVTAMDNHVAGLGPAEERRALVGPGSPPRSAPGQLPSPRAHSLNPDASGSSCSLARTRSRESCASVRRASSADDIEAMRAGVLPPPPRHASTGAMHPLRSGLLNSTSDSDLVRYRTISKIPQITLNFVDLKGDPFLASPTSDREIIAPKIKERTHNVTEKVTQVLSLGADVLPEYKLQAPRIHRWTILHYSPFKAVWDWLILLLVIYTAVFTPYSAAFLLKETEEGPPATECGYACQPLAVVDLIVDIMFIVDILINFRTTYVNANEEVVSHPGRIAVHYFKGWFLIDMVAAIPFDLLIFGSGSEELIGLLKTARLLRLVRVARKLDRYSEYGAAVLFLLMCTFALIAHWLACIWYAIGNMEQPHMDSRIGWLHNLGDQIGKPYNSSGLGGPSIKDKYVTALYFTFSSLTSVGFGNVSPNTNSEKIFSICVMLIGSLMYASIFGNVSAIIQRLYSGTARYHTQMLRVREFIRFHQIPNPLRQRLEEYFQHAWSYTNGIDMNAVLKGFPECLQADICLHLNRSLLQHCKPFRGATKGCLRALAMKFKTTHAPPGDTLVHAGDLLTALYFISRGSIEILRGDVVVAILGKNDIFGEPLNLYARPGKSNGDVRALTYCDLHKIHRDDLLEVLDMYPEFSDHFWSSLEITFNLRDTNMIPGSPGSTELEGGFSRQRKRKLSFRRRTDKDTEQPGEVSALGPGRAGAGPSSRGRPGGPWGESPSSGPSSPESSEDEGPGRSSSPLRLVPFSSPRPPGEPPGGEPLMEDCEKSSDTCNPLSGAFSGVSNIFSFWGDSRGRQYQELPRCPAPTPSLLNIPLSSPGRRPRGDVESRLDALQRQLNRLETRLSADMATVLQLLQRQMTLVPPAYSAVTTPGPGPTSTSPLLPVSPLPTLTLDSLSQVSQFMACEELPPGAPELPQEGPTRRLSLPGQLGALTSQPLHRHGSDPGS

Cc1cc(C(=O)OCC(N)=O)c(C)n1-c1ccc(F)cc1
IC50 (Plasmodium falciparum [1]): 404 nM | IC50 (Plasmodium falciparum [2]): 818 nM | cytotoxicity at 120 µM [3]: 20% | solubility kinetic [4]: 50 µg/mL (≈ 172 µM) | solubility kinetic [5]: 50 µg/mL (≈ 172 µM) | microsomal CLint at 0.5 µM [6]: 29 µL/min/mg | half-life at 0.5 µM [7]: 0.983 h | Relative metabolic rate [8]: Moderate | IC50 [9]: > 33000 nM | Reduced_parasitemia (Plasmodium berghei): inactive | IC50 (Plasmodium falciparum [10]): 581 nM | IC50 (Plasmodium falciparum K1 [11]): 641 nM | IC50 (Plasmodium falciparum K1 [12]): 375 nM

Cc1cc(/C=C2\S/C(=N\c3ccccc3)NC2=O)c(C)n1-c1cc(C(F)(F)F)cc(C(F)(F)F)c1
IC50 (Plasmodium falciparum [1]): 1 nM | IC50 (Plasmodium falciparum [13]): 5 nM | IC50 (Plasmodium falciparum [2]): 7 nM | solubility kinetic [5]: 4 µg/mL (≈ 7.85 µM) | microsomal CLint at 0.5 µM [6]: < 7 µL/min/mg | half-life at 0.5 µM [7]: > 4.17 h | Relative metabolic rate [8]: Low | IC50 (Plasmodium falciparum [14]): 3 nM

COc1cc(C)c2c(Oc3cccc(C(F)(F)F)c3)c(OC)cc(NC(C)CCCN)c2n1 (centres undefined) [TAFENOQUINE]
IC50 (Plasmodium falciparum [14]): 2800 nM

Cc1cc(C(=O)OCC(=O)Nc2c(C)n(C)n(-c3ccccc3)c2=O)c(C)n1-c1ccc(F)cc1
IC50 (Plasmodium falciparum [1]): 345 nM | IC50 (Plasmodium falciparum [2]): 245 nM | cytotoxicity at 120 µM [3]: 20% | solubility kinetic [4]: 12.5 µg/mL (≈ 26.2 µM) | solubility kinetic [5]: 12.5 µg/mL (≈ 26.2 µM) | microsomal CLint at 0.5 µM [6]: 60 µL/min/mg | half-life at 0.5 µM [7]: 0.483 h | Relative metabolic rate [8]: Moderate | Reduced_parasitemia (Plasmodium berghei): inactive | IC50 (Plasmodium falciparum K1 [12]): 152 nM

Cc1cc(/C=C2\S/C(=N\c3ccccc3)NC2=O)c(C)n1-c1ccc(F)cc1
IC50 (Plasmodium falciparum [1]): 176 nM | cytotoxicity at 120 µM [3]: 25% | solubility kinetic [5]: 1 µg/mL (≈ 2.55 µM) | microsomal CLint at 0.5 µM [6]: 15 µL/min/mg | half-life at 0.5 µM [7]: 1.53 h | Relative metabolic rate [8]: Moderate | IC50 (Plasmodium falciparum K1 [12]): 361 nM

CCc1nc(N)nc(N)c1-c1ccc(Cl)cc1 [PYRIMETHAMINE]
IC50 (Plasmodium falciparum [1]): 8.95 nM | IC50 [15]: 13900 nM | IC50 (Plasmodium falciparum K1 [12]): 11900 nM

Cc1cc(/C=C2\S/C(=N\c3ccccc3)N(c3ccccc3)C2=O)c(C)n1-c1cccc(F)c1
IC50 (Plasmodium falciparum [10]): 3200 nM | IC50 (Plasmodium falciparum K1 [11]): > 5000 nM

COc1ccc2nc3cc(Cl)ccc3c(Nc3cc(CN4CCCC4)c(O)c(CN4CCCC4)c3)c2n1 [PYRONARIDINE]
IC50 (Plasmodium falciparum [1]): 3.2 nM | IC50 (Plasmodium falciparum [14]): 2960 nM

Cc1cc(/C=C2\SC(=Nc3ccccc3)NC2=O)c(C)n1-c1ccccc1
IC50 (Plasmodium falciparum [1]): 26 nM | IC50 (Plasmodium falciparum [13]): 11 nM | IC50 (Plasmodium falciparum [2]): 36 nM | IC50 [9]: > 33000 nM | Reduced_parasitemia (Plasmodium berghei): inactive

CC[C@H](C)[C@H](NC(=O)[C@H]([C@@H](C)CC)N(C)C(C)=O)C(=O)N[C@H](C(=O)N[C@@H](CC(C)C)C(=O)[C@@]1(C)CO1)[C@@H](C)O [EPOXOMYCIN]
IC50 (Plasmodium falciparum [1]): 4.2 nM | IC50 [15]: 33.6 nM | IC50 (Plasmodium falciparum [14]): 0.3 nM | IC50 (Plasmodium falciparum K1 [12]): 2.8 nM

Cc1ccc(-n2c(C)cc(C(=O)O)c2C)cc1
inhibition at 120 µM (Plasmodium falciparum K1 [16]): 0% | cytotoxicity at 120 µM [3]: 0% | inhibition at 120 µM (Plasmodium falciparum [17]): 70%

CCN(CC)CCCC(C)Nc1ccnc2cc(Cl)ccc12 (centres undefined) [CHLOROQUINE]
cytotoxicity at 120 µM [3]: 100% | IC50 (Plasmodium falciparum K1 [11]): 235 nM | IC50 (Plasmodium falciparum K1 [12]): 266 nM

CCOC(=O)c1cc(C)n(-c2ccc(C(F)(F)F)cc2)c1C
inhibition at 120 µM (Plasmodium falciparum K1 [16]): 20% | cytotoxicity at 120 µM [3]: 75% | inhibition at 120 µM (Plasmodium falciparum [17]): 85%

Cc1cc(CN2CCCC2)c(C)n1-c1ccc(F)cc1
inhibition at 40 µM (Plasmodium falciparum [18]): 96%

Cc1cc(C(=O)Nc2c(C)n(C)n(-c3ccccc3)c2=O)c(C)n1-c1ccc(F)cc1
inhibition at 80 µM (Plasmodium falciparum [19]): 100%

CC(=O)N(C1=NC(=O)/C(=C/c2cc(C)n(-c3ccc(F)cc3)c2C)S1)c1ccccc1
IC50 (Plasmodium falciparum [1]): 47 nM | IC50 (Plasmodium falciparum [2]): 47 nM | cytotoxicity at 120 µM [3]: 75% | Relative metabolic rate [8]: Rapid non-NADPH acetamide hydrolysis to OSM-S-10 | IC50 (Plasmodium falciparum [14]): 28 nM | IC50 (Plasmodium falciparum K1 [12]): 66 nM

Cc1ccc(-n2c(C)cc(/C=C3\S/C(=N\c4ccccc4)NC3=O)c2C)cc1
IC50 (Plasmodium falciparum [1]): 15 nM | IC50 (Plasmodium falciparum [13]): 9 nM | IC50 (Plasmodium falciparum [2]): 28 nM | solubility kinetic [5]: 2 µg/mL (≈ 5.16 µM) | microsomal CLint at 0.5 µM [6]: < 7 µL/min/mg | half-life at 0.5 µM [7]: > 4.08 h | Relative metabolic rate [8]: Low

COc1ccc(-c2cc3ncnc(Oc4ccc(S(=O)(=O)N5CCOCC5)cc4)c3s2)cc1
inhibition at 40 µM (Plasmodium falciparum [18]): 80%

O=C1N=C(Nc2ccccc2)S/C1=C\c1ccccc1
IC50 (Plasmodium falciparum [13]): > 1000 nM | IC50 (Plasmodium falciparum [2]): > 5000 nM | inhibition at 100 µM (Plasmodium falciparum [20]): 100%

Cc1cc(C=O)c(C)n1-c1ccccc1
inhibition at 120 µM (Plasmodium falciparum K1 [16]): 80% | cytotoxicity at 120 µM [3]: 25% | inhibition at 120 µM (Plasmodium falciparum [17]): 55%

CNC(=O)CN(C)C(=O)c1cc(C)n(-c2ccc(Br)cc2)c1C
inhibition at 40 µM (Plasmodium falciparum [18]): 70%

Cc1cc(C(=O)O)c(C)n1-c1ccc(F)cc1
IC50 (Plasmodium falciparum [2]): > 5000 nM | inhibition at 120 µM (Plasmodium falciparum K1 [16]): 50% | cytotoxicity at 120 µM [3]: 20% | inhibition at 120 µM (Plasmodium falciparum [17]): 75%

Cc1c(NC(=O)CNC(=O)c2ccccc2)c(=O)n(-c2ccccc2)n1C
IC50 (Plasmodium falciparum [2]): > 5000 nM | inhibition at 80 µM (Plasmodium falciparum [19]): 0%

C[C@@H]1CC[C@H]2[C@@H](C)C(=O)O[C@@H]3O[C@@]4(C)CC[C@@H]1[C@]32OO4 [ARTEMISININ]
IC50 (Plasmodium falciparum [1]): 41100 nM | cytotoxicity at 120 µM [3]: 25% | IC50 (Plasmodium falciparum K1 [12]): 1 nM

Cc1cc(C(=O)CCC(N)=O)c(C)n1-c1ccc(F)cc1
inhibition at 40 µM (Plasmodium falciparum [18]): 61%

CCOC(=O)c1cc(C)n(-c2ccc(F)cc2)c1C
IC50 (Plasmodium falciparum [1]): 12000 nM | IC50 (Plasmodium falciparum [2]): > 5000 nM | cytotoxicity at 120 µM [3]: 25% | IC50 (Plasmodium falciparum K1 [12]): 12400 nM

Cc1cc(/C=C2\S/C(=N\c3ccccc3)NC2=O)c(C)n1-c1ccc(C(F)(F)F)cc1
IC50 (Plasmodium falciparum [1]): 2 nM | IC50 (Plasmodium falciparum [13]): 205 nM | IC50 (Plasmodium falciparum [2]): 29 nM | solubility kinetic [5]: 3 µg/mL (≈ 6.8 µM) | microsomal CLint at 0.5 µM [6]: < 7 µL/min/mg | half-life at 0.5 µM [7]: > 4.17 h | Relative metabolic rate [8]: Low | IC50 (Plasmodium falciparum [14]): 4 nM

Cc1cc(/C=C2\S/C(=N\c3ccccc3)N(C3CCCC3)C2=O)c(C)n1-c1ccc(C(F)(F)F)cc1
IC50 (Plasmodium falciparum [1]): 34 nM | IC50 (Plasmodium falciparum [13]): 520 nM | IC50 (Plasmodium falciparum [2]): 276 nM | solubility kinetic [5]: 5 µg/mL (≈ 9.81 µM) | microsomal CLint at 0.5 µM [6]: 14 µL/min/mg | half-life at 0.5 µM [7]: 2.02 h | Relative metabolic rate [8]: Moderate

Cc1cc(C(=O)NCC(N)=O)c(C)n1-c1ccc(F)cc1
IC50 (Plasmodium falciparum [13]): > 1000 nM | IC50 (Plasmodium falciparum [2]): > 5000 nM | inhibition at 80 µM (Plasmodium falciparum [19]): 25%

Cc1cc(C=O)c(C)n1-c1ccc(F)cc1
IC50 (Plasmodium falciparum [2]): > 5000 nM | inhibition at 120 µM (Plasmodium falciparum K1 [16]): 50% | cytotoxicity at 120 µM [3]: 25% | inhibition at 120 µM (Plasmodium falciparum [17]): 60%

Cc1cccc(-n2c(C)cc(C(=O)N(C)CC(=O)Nc3cc(C)on3)c2C)c1
inhibition at 40 µM (Plasmodium falciparum [18]): 85%
